This assay has as its system high conductance Ca2+-activated K+ channel. In kind it is biochemical.

Procedure: Single Ca^2+ -activated K^+ channel currents were monitored in excised membrane patches derived from either bovine aortic smooth muscle cells or GH3 anterior pituitary cells.
Channel recordings were made by conventional patch clamp procedures as previously described by Hamil, O. P., et al. Using a micromanipulator, a glass micropipette (fabricated from soda lime glass, 5-10 m.OMEGA. resistance; containing 150 mM potassium chloride, 2 mM magnesium chloride, 1 5 μM calcium chloride, 10 mM HEPES, pH 7.3) was positioned on the surface of the cell, slight negative pressure was applied and the formation of a high resistance seal between the plasma membrane and pipette was monitored. Seals of 10-50×10^9 .OMEGA. were required for subsequent measurements.
After attaining such a seal, the cell membrane was ruptured by application of a rapid negative pressure pulse and the electrode was pulled away from the cell to form an outside-facing-out excised patch at the tip of the electrode. The presence of Ca^2+ -activated K^+ channels was then determined, and such activity could be recorded in excised patches for up to two hours. Recordings were made at a holding potential of 0 to +20 mV in a bathing medium consisting of 150 mM sodium chloride, 10 mM HEPES, pH 7.3. […]

For the compound `CC[N+](CC)(CC)CC` [tetraethylammonium ion], the “block of channel activity” value is given as “rapid reversible block”.
